# Molecular target: hydroxycarboxylic acid receptor 2 (HCA2) (Bos taurus, UniProt G3N168)
# Experiment: Fura-2 calcium mobilization in native bovine neutrophils expressing HCA2
# Format: cell-based
# Chain of hydroxycarboxylic acid receptor 2 (HCA2) (G3N168 1-379): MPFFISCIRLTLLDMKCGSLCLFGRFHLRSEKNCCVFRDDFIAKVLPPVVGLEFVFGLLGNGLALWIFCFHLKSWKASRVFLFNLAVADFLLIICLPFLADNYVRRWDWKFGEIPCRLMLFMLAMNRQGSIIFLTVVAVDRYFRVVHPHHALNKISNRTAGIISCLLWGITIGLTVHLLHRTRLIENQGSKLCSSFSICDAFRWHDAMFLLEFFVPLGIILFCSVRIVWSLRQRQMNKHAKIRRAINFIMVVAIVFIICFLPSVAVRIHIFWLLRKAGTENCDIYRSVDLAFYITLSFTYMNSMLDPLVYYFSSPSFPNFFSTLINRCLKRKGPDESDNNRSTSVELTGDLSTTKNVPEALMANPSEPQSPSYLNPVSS
row,EC50,Compound
1,0.0338 µM,"O=C(O)c1n[nH]c2c1C[C@H]1C[C@@H]21 [MK-1903, (1aR,5aR)1a,3,5,5a-Tetrahydro-1H-2,3-diaza-cyclopropa[a]pentalene-4-carboxylic acid]"
2,2650 µM,"CC(O)CC(=O)O (stereo not drawn) [BHB, β-hydroxybutyrate]"

# Reference: paper PMC7385489, “β-hydroxybutyrate and hydroxycarboxylic acid receptor 2 agonists activate the AKT, ERK and AMPK pathways, which are involved in bovine neutrophil chemotaxis” (Scientific Reports, 2020)
